# Values of other authors as cited in patent publication US10632442B2, “Apparatus for a mass production of monodisperse biodegradable polymer-based microspheres and a multi-channel forming device incorporatable therein” (INVENTAGE LAB, INC., priority 2016, dated 2020).
# Conditions: in vivo
smiles,measurement,value
CO/N=C1\C[C@]2(C[C@@H]3C[C@@H](C/C=C(\C)C[C@@H](C)/C=C/C=C4\CO[C@@H]5[C@H](O)C(C)=C[C@@H](C(=O)O3)[C@]45O)O2)O[C@H](/C(C)=C/C(C)C)[C@H]1C [Moxidectin],AUC,217 ng·days/mL
same,Cmax,5.1 ng/mL
same,Tmax,7 to 10 days
same,T½,35 days
